Patent US20250290142A1, “DETECTING OXIDATIVE STRESS IN CELL(S) USING EPIGENETIC MEANS” (Evonik Operations GmbH, priority 2022, published 2025)

Test system: T-Skin models (reconstructed human skin)
Conditions: maintained 24 hrs
Experimental: T-Skin models were obtained from Episkin SA, France which is composed of reconstructed human skin. Each skin model consists of a dermal equivalent overlaid by a stratified, well-differentiated epidermis derived from normal human keratinocytes. Upon receiving the skin models, it was recovered by incubating in T-Skin culture medium overnight at 37° C. in a 5% CO2 incubator.
The genomic DNA (500 ng) from tissue samples were subjected to bisulfite conversion using the EZ DNA Methylation-Gold™ Kit (Zymo Research). The methylation levels were quantified using Infinium MethylationEPIC v2.0 Kit (Illumina) which can analyze over 850,000 methylation sites quantitatively across the genome at single-nucleotide resolution.
Quality check on samples was performed to keep probes that have a detection P-value <0.01 in one or more samples or have a mean detection P-value <0.05 in all samples. […]
Prior to differential methylation analysis, the probes with non-specific binding, cross reactive probes, probes affected by common SNPs, and probes annotated to the X, Y chromosomes were also filtered out. Beta-value and M-value of normalized and filtered samples were calculated using getBeta and getM function respectively, the samples were then subjected to further downstream analysis. […]

OO [H2O2, Hydrogen peroxide]
methylation status of probes vs cells without OS (FIG. 4A) (high H2O2 (200 μM) for 2 hrs): large number of probes that are hypomethylated | methylation status of probes vs cells without OS (FIG. 3A) (low H2O2 (100 μM) for 2 hrs): large number of probes that are hypomethylated
